Legend:
[1] = system: Sporosarcina; assay: Compound was evaluated for the inhibition of Phenylalanine dehydrogenase of Sporosarcina species; conditions: concentration not given here
[2] = system: Bacillus; assay: Compound was evaluated for the inhibition of Leucine dehydrogenase of Bacillus species; conditions: concentration not given here

| inhibition [1] [%] | inhibition [2] [%] | Compound |
| --- | --- | --- |
| 53 | – | C[C@H](O)[C@H](N)C(=O)O |
| 61 | – | C[C@@H](O)[C@H](N)C(=O)O |
| – | 93 | COCO[C@@H](C)C(=O)C(=O)O |
| – | 8 | COCO[C@H](C)C(=O)C(=O)O |
